Assays:
[1] = system: pancreas; assay: In situ rat pancreatic perfusion, insulin and glucagon release; set-up: species or system Wistar Han rats; conditions: 500 nM compound, vs vehicle
Procedure: Male Wistar Han rats were purchased from Charles River Laboratories Inc. at 6 weeks of age and housed 2 per cage for two weeks with food and water ad libitum. In Situ Pancreatic perfusions were performed when the rats were eight weeks old. All procedures were performed in accordance with relevant guidelines and regulations. Food was removed 4-5 hours prior to surgery. For each surgery, the rat was fully sedated with 100 mg/kg intraperitoneal (i.p.) Na-pentobarbital (NEMBUTAL) anesthesia. The depth of anesthesia was determined by a “paw pinch” test. Surgery was not initiated until the rat was fully sedated. If necessary an additional 50 mg/kg i.p. dose (50% of original) of NEMBUTAL was given. The peritoneal cavity was opened and coeliac artery was ligated dorsally. […] cannula was inserted into coeliac artery for perfusant afflux. The left gastric artery was ligated at the esophagus-stomach junction. The hepatic portal vein was ligated dorsally and cannulated ventrally (25G cannula; towards liver) for perfusant efflux. Immediately following the surgery, the rat was placed into the perfusion chamber and perfused at 3 ml/minute with modified KREBS-RINGER buffers [see. […] et al. 2012 Reproductive biology and endocrinology 10:110]. The buffers and perfusion chamber were kept warm at 37° C. and saturated with an O^2/CO^2 gases mixture. The buffers were 2 mM or 16 mM glucose and contained either vehicle (0.1%/DMSO) or Compound A (see Table 1) or 30 mM L-Arginine. The perfusant was collected by automated fraction collector at one sample per minute rate with about 90% rate of buffer recovery. Samples were frozen at -70° C. and later analyzed for total insulin and glucagon content. For the buffers: First the following mixture was prepared in water containing 10% NaCl (1.19M), 5% KCL (94 mM), 10% […] (250 mM), 5% CaCl2-2H2O (50 mM), 5% MgSO4-7H2O (24 mM), and 5% KH2PO4 (24 mM). The buffer was then oxygenated for 20 minutes, and 3% dextran and 0.2% BSA (insulin free) were added. Glucose was added from 1M stock solution as needed. FIGS. 4A-B illustrate a pancreatic perfusion assay in Wistar Han rats, and insulin (left panel) and glucagon (right panel) release measurements. As shown (lines with open circles), a basal level of insulin and a fair amount of glucagon were secreted from pancreas when perfused with low glucose (6 mM glucose). […] Application of GPR119 agonist (500 nM Compound A, lines with solid circles) enhanced both basal and glucose-stimulated pancreas insulin secretion (left panel).

[2] = system: male Wistar Han rats; assay: Hyperinsulinemic-hypoglycemia clamp study; type: in vivo; conditions: for change of systemic blood glucose level during clamp / glucose infusion rate needed to maintain blood glucose at 50 mg/dl: 60 minutes prior to clamp; for change of systemic blood glucose level during clamp: FIG. 6A; for glucose infusion rate needed to maintain blood glucose at 50 mg/dl: FIG. 6B; for systemic epinephrine release at hypoglycemic status: FIG. 7C; for c-peptide release: FIG. 7D
Procedure: FIG. 5 illustrates a scheme and time-course depiction of the hyperinsulinemic-hypoglycemia clamp study performed in rats as described in EXAMPLE 4. Rats were recovered from surgery stress and pre-treated with vehicle, GLIBENCLAMIDE (5 mpk), or GPR119 agonist Compound B (10 mpk) 60 minutes prior to initiation of the clamp. From time zero, rats received an insulin bolus injection initially, then were simultaneously infused with insulin at a steady rate and glucose at an adjusted rate based on the plasma glucose level measured at every 10 minutes. Vertical bars indicate the time points when the blood specimens were collected for measurements of insulin, C-peptide, glucagon, and epinephrine/norepinephrine (0 min, 30 min, 60 min, 90 min and 120 min).
A hyperinsulinemic-hypoglycemia clamp study was performed in male Wistar Han rats as shown in FIG. 5 and described below to explore the potential roles of GPR119 agonists in regulating glucagon secretion at the hypoglycemic status. Three groups were studied, those treated with: (1) vehicle, (2) GPR119 agonist, Compound B, C, F, H, I, M and V (see Table 1 and Table 2), at 10, 30, 100, 100, 100, 30 and 30 mpk, respectively, or (3) GLIBENCLAMIDE, a sulfonylurea insulin secretagogue known to cause hypoglycemia, at 5 mpk. Blood samples (100-150 μl) were collected for insulin, C-peptide, glucagon, and epinephrine/norepinephrine measurements. Terminal bleeding was analyzed for PK measurement.
FIGS. 5, 6A-B, 7A-D and 8A-L illustrate the hyperinsulinemic-hypoglycemia clamp study of EXAMPLE 4. FIG. 5 is a scheme and time-course depiction of the hyperinsulinemic-hypoglycemia clamp study performed in rats. Vertical bars indicate the time points when the rats were infused with compound, or insulin/glucose, or blood specimens were collected for measurements of insulin, C-peptide, glucagon, and epinephrine/norepinephrine. After recovered from surgery stress, rats were pre-treated with vehicle, GLIBENCLAMIDE (5 mpk), or GPR119 agonist Compound B (10 mpk) 60 minutes prior to initiation of the clamp. From time zero, rats received an initial insulin bolus injection followed by simultaneous infusion of insulin at a steady rate and glucose at an adjusted rate. Rat plasma glucose levels (FIG. 6A) were monitored periodically, and the glucose infusion rate (FIG. 6B) was adjusted so that the blood glucose level would be maintained at 50 mg/dl.

[3] = high glucose (12 mM glucose) perfusion
[4] = low glucose (6 mM glucose) perfusion
[5] = 30 mpk, hypoglycemic status (50 mg/dL), FIGS. 8A-L
[6] = 100 mpk, hypoglycemic status (50 mg/dL), FIGS. 8A-L

CC1(OC(=O)C2CC3COCC(C2)C3Oc2ncnc(Nc3ccc(C#N)cc3Cl)c2F)CC1 (centres unmarked) [Compound A]
glucose-repressed glucagon secretion from pancreas [1, 3]: did not affect
glucose-stimulated pancreas insulin secretion [1, 3]: enhanced
basal glucagon release from pancreas [1, 4]: elevated basal glucagon release
basal pancreas insulin secretion [1, 4]: enhanced

CCc1noc(N2CCC([C@H]3C[C@H]3CCOc3ccc(S(C)(=O)=O)cn3)CC2)n1 [Compound V]
blood glucagon secretion at hypoglycemic status [2, 5]: significantly elevated

COCc1noc(N2CCC([C@H]3C[C@H]3CCOc3ccc(S(C)(=O)=O)c(F)c3)CC2)n1 [Compound M]
blood glucagon secretion at hypoglycemic status [2, 5]: significantly elevated

COc1c(Nc2ccc(S(C)(=O)=O)nc2C)ncnc1OC1CCN(C(=O)OC(C)C)CC1 [Compound F]
blood glucagon secretion at hypoglycemic status [2, 6]: significantly elevated

C[S+]([O-])c1ccc(OCCCC2CCN(C(=O)OC(C)(C)C)CC2)cc1F (centres unmarked) [Compound I]
blood glucagon secretion at hypoglycemic status [2, 6]: significantly elevated

CS(=O)(=O)c1ccc(OCC[C@@H]2C[C@@H]2C2CCN(c3ncc(Cl)cn3)CC2)nc1 [Compound C]
blood glucagon secretion at hypoglycemic status [2, 5]: significantly elevated

COCc1cnc(N2CCC([C@H]3C[C@H]3CCOc3cc(F)c(CC(=O)N4CCC4)c(F)c3)CC2)nc1 [Compound B]
change of systemic blood glucose level during clamp ([2]; 10 mpk, compared with vehicle): comparable and slower
glucose infusion rate needed to maintain blood glucose at 50 mg/dl ([2]; 10 mpk, compared with vehicle): comparable and slower
systemic epinephrine release at hypoglycemic status ([2]; 10 mpk): only slightly altered
c-peptide release ([2]; 10 mpk): indistinguishable from vehicle control
blood glucagon secretion at hypoglycemic status ([2]; 10 mpk, blood glucose dropping to 50 mg/dL, 15-60 minutes, FIGS. 7A-B): significantly elevated

COc1ccc(Cl)cc1C(=O)NCCc1ccc(S(=O)(=O)NC(=O)NC2CCCCC2)cc1 [GLIBENCLAMIDE, glibenclamide, reference compound]
change of systemic blood glucose level during clamp ([2]; 5 mpk): rapidly decreases blood glucose level
glucose infusion rate needed to maintain blood glucose at 50 mg/dl ([2]; 5 mpk): requires much faster glucose infusion rate
systemic epinephrine release at hypoglycemic status ([2]; 5 mpk): inhibited this elevation
c-peptide release ([2]; 5 mpk): promotes c-peptide release
blood glucagon secretion at hypoglycemic status ([2]; 5 mpk, blood glucose dropping to 50 mg/dL, 15-60 minutes, FIGS. 7A-B): suppressed glucagon secretion

CCc1cnc(N2CCC(c3nc(COc4ccc(-n5cnnn5)cc4)cs3)CC2)nc1 [Compound H]
blood glucagon secretion at hypoglycemic status [2, 6]: significantly elevated
